Molecular target: ALK tyrosine kinase receptor (Homo sapiens, UniProt Q9UM73)
Assay: In Vitro Kinase Activity Assay
Conditions: pH 7.5

Sequence of ALK tyrosine kinase receptor (Q9UM73 whole entry): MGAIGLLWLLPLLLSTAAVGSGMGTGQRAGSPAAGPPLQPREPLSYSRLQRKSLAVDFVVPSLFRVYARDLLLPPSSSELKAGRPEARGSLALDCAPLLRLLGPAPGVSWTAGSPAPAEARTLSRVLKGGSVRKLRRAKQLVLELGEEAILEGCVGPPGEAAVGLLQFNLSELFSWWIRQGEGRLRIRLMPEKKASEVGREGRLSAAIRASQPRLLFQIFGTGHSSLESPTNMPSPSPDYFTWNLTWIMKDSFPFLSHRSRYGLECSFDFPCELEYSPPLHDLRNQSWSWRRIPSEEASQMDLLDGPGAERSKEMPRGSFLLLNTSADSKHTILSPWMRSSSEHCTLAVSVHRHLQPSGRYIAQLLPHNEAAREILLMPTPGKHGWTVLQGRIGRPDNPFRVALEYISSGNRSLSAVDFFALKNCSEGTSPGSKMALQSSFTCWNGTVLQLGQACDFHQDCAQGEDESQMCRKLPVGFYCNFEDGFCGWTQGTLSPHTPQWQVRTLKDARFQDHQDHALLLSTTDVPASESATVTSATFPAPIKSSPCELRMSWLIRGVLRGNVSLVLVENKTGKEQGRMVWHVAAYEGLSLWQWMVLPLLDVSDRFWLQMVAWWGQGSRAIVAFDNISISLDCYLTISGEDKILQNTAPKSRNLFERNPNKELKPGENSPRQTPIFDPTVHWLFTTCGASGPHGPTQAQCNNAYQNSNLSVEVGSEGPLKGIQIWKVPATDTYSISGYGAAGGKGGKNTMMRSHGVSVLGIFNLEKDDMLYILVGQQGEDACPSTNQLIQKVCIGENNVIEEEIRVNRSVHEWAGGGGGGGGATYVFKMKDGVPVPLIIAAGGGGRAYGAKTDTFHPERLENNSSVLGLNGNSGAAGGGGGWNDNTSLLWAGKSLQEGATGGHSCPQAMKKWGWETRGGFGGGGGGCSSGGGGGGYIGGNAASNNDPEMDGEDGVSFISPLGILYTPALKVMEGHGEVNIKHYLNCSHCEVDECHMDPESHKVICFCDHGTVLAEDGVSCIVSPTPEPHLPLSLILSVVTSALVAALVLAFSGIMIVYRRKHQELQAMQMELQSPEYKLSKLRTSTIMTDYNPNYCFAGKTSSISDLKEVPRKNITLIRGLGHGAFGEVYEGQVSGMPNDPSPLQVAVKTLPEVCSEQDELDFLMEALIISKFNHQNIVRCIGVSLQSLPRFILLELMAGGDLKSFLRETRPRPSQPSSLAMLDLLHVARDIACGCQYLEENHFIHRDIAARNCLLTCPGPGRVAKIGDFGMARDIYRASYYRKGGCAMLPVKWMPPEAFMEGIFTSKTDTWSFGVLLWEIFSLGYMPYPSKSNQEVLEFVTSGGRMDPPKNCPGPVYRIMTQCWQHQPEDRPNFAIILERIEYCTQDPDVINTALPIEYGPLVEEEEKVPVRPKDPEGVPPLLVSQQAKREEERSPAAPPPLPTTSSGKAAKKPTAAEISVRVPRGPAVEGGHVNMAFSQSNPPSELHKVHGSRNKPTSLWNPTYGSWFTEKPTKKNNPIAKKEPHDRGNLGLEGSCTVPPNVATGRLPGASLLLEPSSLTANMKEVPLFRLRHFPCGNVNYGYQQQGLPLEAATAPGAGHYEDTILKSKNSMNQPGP

Compound CC(Cc1cc(F)ccc1F)Nc1cc[nH]c(=O)c1-c1nc2cc3c(cc2[nH]1)C(=O)N(C1CCN(C)CC1)C3=O (stereo unspecified) [US8822500, [28]] has an IC50 of 0.0151 µM.

Source: BindingDB's records for patent US8822500 (Chembridge, 2014)
